Source: article PMC5856591 (Cell chemical biology, 2018)

Columns and labels:
Sec14p of C. albicans = Sec14p of C. albicans (Candida albicans, UniProt P46250); assay: in vitro [3H]-PtdIns lipid transfer assay, C. albicans Sec14p; format: biochemical; conditions: for inhibition of PtdIns-transfer by C. albicans protein (in words): tested concentration range
[1] = system: S. cerevisiae SEC14/sec14; assay: growth assay with heterozygous SEC14 deletion strain; format: cell-based, Saccharomyces cerevisiae; conditions: for IC50: Saccharomyces cerevisiae, SEC14/SEC14, read-out: IC50 [μM] S. cerevisiae SEC14/sec14
Sec14p = Sec14p (Saccharomyces cerevisiae, UniProt P24280); assay: in vitro [3H]-PtdIns lipid transfer assay, recombinant Sec14p; format: biochemical, S. cerevisiae; conditions: for inhibition of Sec14p-mediated PtdIns-transfer (in words): 20 μM SMI end-point assay
Sequence of Sec14p (P24280 whole entry): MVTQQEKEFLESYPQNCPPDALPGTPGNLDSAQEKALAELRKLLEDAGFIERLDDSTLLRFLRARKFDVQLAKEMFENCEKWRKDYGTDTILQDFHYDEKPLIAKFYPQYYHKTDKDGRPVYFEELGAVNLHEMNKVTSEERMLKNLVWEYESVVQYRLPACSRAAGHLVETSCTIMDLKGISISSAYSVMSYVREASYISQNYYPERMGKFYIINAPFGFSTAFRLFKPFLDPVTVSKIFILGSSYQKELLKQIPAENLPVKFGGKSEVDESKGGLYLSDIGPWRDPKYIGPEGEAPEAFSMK

[2] = kinetic aqueous solubility; format: physicochemical; conditions: pH 7.4
[3] = system: S. cerevisiae wildtype BY4743; assay: growth-inhibitory potency on wildtype S. cerevisiae; conditions: Saccharomyces cerevisiae, read-out: IC50 [μM] S. cerevisiae wildtype, cell based growth assay, wildtype
PITPα = target: T1, PITPα (Mus musculus, UniProt P53810); assay: in vitro [3H]-PtdIns lipid transfer assay, mammalian PITPα; conditions: 20 μM
T1 sequence (P53810 1-271): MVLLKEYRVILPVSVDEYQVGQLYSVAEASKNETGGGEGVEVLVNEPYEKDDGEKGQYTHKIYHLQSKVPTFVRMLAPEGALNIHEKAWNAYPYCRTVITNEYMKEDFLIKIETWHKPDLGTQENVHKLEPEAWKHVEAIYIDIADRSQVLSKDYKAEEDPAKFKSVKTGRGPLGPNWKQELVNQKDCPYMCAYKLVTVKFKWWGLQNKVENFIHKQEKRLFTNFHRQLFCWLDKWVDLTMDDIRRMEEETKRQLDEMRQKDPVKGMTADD

[4] = system: cki1 and kes1 “bypass Sec14p” mutants; assay: spot growth assay of bypass Sec14p mutants; format: cell-based, Saccharomyces cerevisiae; conditions: 20 μM on agar plates
HCT116 cells = assay: CellTiter-Glo luminescent cell viability assay; format: cell-based; conditions: Homo sapiens, HCT-116, 72 h, read-out: IC50 [μM] HCT116
Sec14p of C. glabrata = Sec14p of C. glabrata (Candida glabrata, UniProt P53989); assay: in vitro [3H]-PtdIns lipid transfer assay, C. glabrata Sec14p; format: biochemical
Sequence of Sec14p of C. glabrata (P53989 whole entry): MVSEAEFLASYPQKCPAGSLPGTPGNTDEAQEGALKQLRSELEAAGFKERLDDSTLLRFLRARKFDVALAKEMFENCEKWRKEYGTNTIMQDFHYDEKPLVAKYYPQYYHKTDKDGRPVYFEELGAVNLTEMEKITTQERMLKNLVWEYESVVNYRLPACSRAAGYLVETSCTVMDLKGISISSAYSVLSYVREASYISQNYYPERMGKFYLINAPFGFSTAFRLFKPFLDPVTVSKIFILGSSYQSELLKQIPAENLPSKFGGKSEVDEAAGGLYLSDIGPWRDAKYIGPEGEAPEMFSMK

S. cerevisiae BY4743Δ8 [5] = assay: growth assay, wildtype versus efflux-deficient wildtypeΔ8; format: cell-based, Saccharomyces cerevisiae; conditions: ratio of growth IC50 wildtype to wildtypeΔ8
Sec14p^V155A = assay: [3H]-PtdIns transfer assay with recombinant Sec14p V155A; format: biochemical, S. cerevisiae
[6] = system: mutant Sec14ps (Y151H, V154G, V155A, S173L, S201G); assay: [3H]-PtdIns transfer assay with recombinant mutant Sec14ps; format: biochemical, S. cerevisiae; conditions: all mutant proteins but one
S. cerevisiae BY4743Δ8 [7] = assay: MIC on solid medium; format: cell-based, Saccharomyces cerevisiae; conditions: 72 hours, 30°C

Sequence of Sec14p of C. albicans (P46250 whole entry): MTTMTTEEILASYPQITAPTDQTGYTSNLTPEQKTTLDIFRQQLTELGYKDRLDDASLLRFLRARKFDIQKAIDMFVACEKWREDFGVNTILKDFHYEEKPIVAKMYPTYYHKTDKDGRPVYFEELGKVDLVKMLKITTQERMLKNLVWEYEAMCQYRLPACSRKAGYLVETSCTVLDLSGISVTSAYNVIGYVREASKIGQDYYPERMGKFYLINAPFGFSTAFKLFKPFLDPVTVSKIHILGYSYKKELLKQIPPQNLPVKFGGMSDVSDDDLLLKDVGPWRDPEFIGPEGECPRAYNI

Row | SMILES | IC50 (Sec14p of C. albicans) | inhibition of PtdIns-transfer by C. albicans protein (in words) (Sec14p of C. albicans) | fitness of SEC14/sec14Δ heterozygote relative to isogenic wildtype (in words) [1] | IC50 [1] | IC50 (Sec14p) | inhibition of Sec14p-mediated PtdIns-transfer (in words) (Sec14p) | solubility in pure aqueous solutions (in words) [2] | IC50 [3] | inhibition of PtdIns-transfer by mammalian PITPα (in words) (PITPα) | growth of bypass Sec14p mutants under compound challenge (in words) [4] | IC50 (HCT116 cells) | IC50 (Sec14p of C. glabrata) | fold IC50 shift S. cerevisiae wildtype/wildtypeΔ8 (S. cerevisiae BY4743Δ8 [5]) | increase in IC50 of Sec14p^V155A relative to wild-type Sec14p (Sec14p^V155A) | sensitivity of mutant Sec14ps other than V155A (in words) [6] | Minimal inhibitory concentration S. cerevisiae BY4743Δ8 (S. cerevisiae BY4743Δ8 [7])
1 | O=C(NCc1ccc2c(c1)OCO2)c1ncc(Br)cc1F [Compound 2] | > 100 µM | did not inhibit | decreased fitness | 9.4 µM | 6.7 µM | clear inhibition | better solubility than compound 3 | 28.5 µM | no such inhibitory effects | indifferent to challenge | > 100 µM | 10.9 µM | 2.7x fold | – | – | –
2 | O=C(NCc1ccc2c(c1)OCO2)c1ccc(Br)cc1F [Compound 3] | – | did not inhibit | decreased fitness | 1.7 µM | – | clear inhibition | – | 7 µM | no such inhibitory effects | indifferent to challenge | > 100 µM | – | 2.8x fold | 17 fold | essentially indifferent | –
3 | CC[C@@H]([C@H](C)O)n1ncn(-c2ccc(N3CCN(c4ccc(OC[C@@H]5CO[C@@](Cn6cncn6)(c6ccc(F)cc6F)C5)cc4)CC3)cc2)c1=O [Posaconazole] | – | – | – | – | – | – | – | – | – | – | – | – | – | – | – | <0.3 µM
